From paper PMC11597774, “Investigation of Antimicrobial and Anti-Inflammatory Efficacy of Newly Synthesized Pyrogallol-Coumarin Hybrids: In Vitro and In Silico Studies” (Pharmaceutics, 2024)
Converted amounts (≈) assume the structure as drawn.

Experiments:
[1] = molecular target: T1, Soybean lipoxygenase (Type I-B) (Glycine max, UniProt P08170); experiment: In vitro LOX inhibition assay; assay type: biochemical; settings: for inhibition at 25 µM / inhibition at 50 µM / inhibition at 100 µM: read-out: Anti-LOX Activity (%); for IC50: sodium linoleate substrate, tris buffer pH 9, read-out: IC50 (µM), in vitro lipoxygenase inhibitory activity
T1 construct: purchased Merck (KGaA, Darmstadt, Germany)
T1 sequence (P08170 1-839): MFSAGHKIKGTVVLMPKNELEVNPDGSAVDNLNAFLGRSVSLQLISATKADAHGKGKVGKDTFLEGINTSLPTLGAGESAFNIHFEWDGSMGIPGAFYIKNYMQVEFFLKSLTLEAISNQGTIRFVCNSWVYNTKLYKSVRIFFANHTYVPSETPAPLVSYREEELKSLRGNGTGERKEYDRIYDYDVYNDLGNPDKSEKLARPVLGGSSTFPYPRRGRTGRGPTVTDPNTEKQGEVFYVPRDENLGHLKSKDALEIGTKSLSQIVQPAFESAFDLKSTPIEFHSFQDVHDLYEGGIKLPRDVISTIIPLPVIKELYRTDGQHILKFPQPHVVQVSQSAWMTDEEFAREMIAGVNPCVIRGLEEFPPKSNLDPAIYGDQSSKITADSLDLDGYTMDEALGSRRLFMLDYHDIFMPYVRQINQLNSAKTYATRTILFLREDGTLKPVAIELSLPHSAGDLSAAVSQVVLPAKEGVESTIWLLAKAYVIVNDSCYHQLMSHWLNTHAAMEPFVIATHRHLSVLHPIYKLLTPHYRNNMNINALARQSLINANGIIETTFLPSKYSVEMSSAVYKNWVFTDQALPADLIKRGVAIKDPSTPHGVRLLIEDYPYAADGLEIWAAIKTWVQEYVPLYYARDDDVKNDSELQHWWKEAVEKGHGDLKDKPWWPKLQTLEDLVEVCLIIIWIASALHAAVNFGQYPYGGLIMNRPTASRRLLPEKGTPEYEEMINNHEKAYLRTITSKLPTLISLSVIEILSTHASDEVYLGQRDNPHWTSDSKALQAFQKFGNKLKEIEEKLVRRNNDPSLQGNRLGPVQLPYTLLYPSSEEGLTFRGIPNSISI
From the text: Soybean lipoxygenase (Type I-B) is a very often used enzyme for the investigation of anti-inflammatory properties of compounds [38]. The LOX inhibition assay measures the rate of oxidation of linoleic acid by lipoxygenase, which results in the formation of a colorless product that can be detected spectrophotometrically. This enzyme catalyzes the conversion of linoleic acid into hydroperoxy fatty acids and results in increased absorbance at 234 nm. The tested compounds dissolved in DMSO were incubated at room temperature with sodium linoleate (3 mM in tris buffer pH = 9) and enzyme solution (5 × 10^3 units/mL in saline). The activity for each tested compound was presented as IC50 value ± standard deviation (SD) of three independent measurements.

[2] = tested on: C. albicans ATCC 10231; experiment: Microdilution MIC/MMC with resazurin; assay type: cell-based, Candida albicans
Method: (§1) The antimicrobial activity of PCH-1 and PCH-2 was tested against 13 microorganisms. The experiment included four standard strains, Staphylococcus aureus ATCC 6538, Bacillus subtilis ATCC 6633, Proteus mirabilis ATCC 12453, and Pseudomonas aeruginosa ATCC 27853; five isolates, Staphylococcus aureus, Escherichia coli, Salmonella enterica, Klebsiella pneumoniae, and Bacillus subtilis; and one probiotic strain Lactobacillus plantarum 299V. Additionally, three fungal strains were tested, including one standard strain, Candida albicans ATCC 10231, and two isolates, Saccharomyces cerevisiae and probiotic strain Saccharomyces boulardii.
(§2) The bacterial suspensions were prepared using the direct colony method. The turbidity of the initial suspension was adjusted using a densitometer (DEN-1, BioSan, Latvia). When adjusted to the turbidity of the 0.5 McFarland standard, the bacterial suspension contains approximately 10^8 colony-forming units (CFU)/mL, and the yeast suspension contains approximately 10^6 CFU/mL. For the experiment, the initial suspension was further diluted at a 1:100 ratio in a sterile 0.85% saline solution.
(§3) The antimicrobial activity was assessed by determining the minimum inhibitory concentrations (MICs) and minimum microbicidal concentrations (MMCs) using the microdilution plate method with resazurin (Alfa Aesar GmbH & Co. (KG, Karlsruhe, Germany)). For this, 96-well plates were prepared by adding 100 μL of Mueller Hinton broth (Torlak, Belgrade, Serbia) for bacterial tests and Sabouraud broth (Torlak, Belgrade, Serbia) for yeast into each well. The tested PCH-1 and PCH-2 were dissolved in 10% dimethyl sulfoxide (DMSO) and then diluted into sterile distilled water. A 100 μL sample from the stock solution of the tested compound was then added to the first row of the plate, followed by twofold serial dilutions using a multichannel pipette. This produced a concentration range from 2.69 to 0.0025 µmol/L. The method is described in detail in the reported paper.
(§4) Each test setup included growth control and sterility control. […] Minimum microbicidal concentrations (MMCs) were determined as described in detail in the reported paper.

[3] = tested on: S. boulardii; experiment: Microdilution MIC/MMC with resazurin; assay type: cell-based, Saccharomyces boulardii
Method: as §1, §2, §3, §4

[4] = tested on: S. cerevisiae; experiment: Microdilution MIC/MMC with resazurin; assay type: cell-based, Saccharomyces cerevisiae
Method: as §1, §2, §3, §4

[5] = tested on: B. subtilis (isolate); experiment: Microdilution MIC/MMC with resazurin; assay type: cell-based, Bacillus subtilis
Method: as §1, §2, §3, §4

[6] = tested on: B. subtilis ATCC 6633; experiment: Microdilution MIC/MMC with resazurin; assay type: cell-based, Bacillus subtilis
Method: as §1, §2, §3, §4

[7] = tested on: S. enterica; experiment: Microdilution MIC/MMC with resazurin; assay type: cell-based, Salmonella enterica; settings: S. enterica
Method: as §1, §2, §3, §4

[8] = tested on: E. coli; experiment: Microdilution MIC/MMC with resazurin; assay type: cell-based, Escherichia coli
Method: as §1, §2, §3, §4

[9] = tested on: K. pneumoniae; experiment: Microdilution MIC/MMC with resazurin; assay type: cell-based, Klebsiella pneumoniae
Method: as §1, §2, §3, §4

[10] = tested on: P. mirabilis ATCC 12453; experiment: Inhibition of biofilm formation (crystal violet); assay type: cell-based, Proteus mirabilis
Method: (§5) The ability of S. aureus ATCC 6538, P. mirabilis ATCC 12453, and P. aeruginosa ATCC 27853 to form biofilms was assayed as described by O’Toole et al. (2000), with some modifications. Briefly, tissue culture 96-well microtiter plates (Sarstedt, Germany) were prepared by dispensing 100 µL of nutrient broth (i.e., Mueller Hinton broth) into each well. Then, 10 µL of spore suspension (1.0 McFarland for Gram-positive bacteria and 0.5 McFarland for Gram-negative bacteria) was added to each row. To encourage biofilm formation, all plates were incubated at 37 °C for 48 h, after which the content of each well was emptied and washed twice with 200 µL of sterile 0.85% saline to remove non-adherent cells. The biofilms formed were fixed by adding 100 µL of methanol until it evaporated completely, then stained with 0.1% (w/v) crystal violet (Fluka AG, Buchs, Switzerland) and left at room temperature for 20 min. The excess stain was washed away with deionized water, followed by […] of 96% ethanol. The optical densities (ODs) of the stained biofilms were measured with an ELISA plate reader (RT-2100C, Rayto, Shenzhen, China) at 630 nm. Control wells containing only broth were included to verify sterility and prevent nonspecific media binding. To account for background absorbance, OD readings from sterile medium, fixative, and dye were averaged and subtracted from all test measurements. All tests were conducted in duplicate. The tissue culture 96-well microtiter plates (Sarstedt, Germany) were prepared by dispensing 100 µL of nutrient broth (i.e., Mueller Hinton broth) into each well. From the stock solutions of tested PCH-1 and PCH-2 (at a concentration of 5.4 µmol/L), 100 µL was added to the first row of the microtiter plate. Twofold serial dilutions were then performed, followed by the addition of 10 µL of bacterial suspension to each well. The turbidity of the bacterial suspension was 0.5 McFarland for Gram-negative bacteria and 1.0 McFarland for Gram-positive bacteria. The microtiter plates prepared in this way were incubated at 37 °C for 48 h. The remaining steps of the experiment were carried out as outlined below. […] Only broth or broth with tested PCH-1 and PCH-2 served as controls to check sterility and nonspecific binding of media. To compensate for background absorbance, OD readings from sterile medium, extracts, fixative, and dye were averaged and subtracted from all test values. All tests were performed in duplicate.

[11] = tested on: S. aureus (isolate); experiment: Microdilution MIC/MMC with resazurin; assay type: cell-based, Staphylococcus aureus
Method: as §1, §2, §3, §4

[12] = tested on: P. mirabilis ATCC 12453; experiment: Microdilution MIC/MMC with resazurin; assay type: cell-based, Proteus mirabilis
Method: as §1, §2, §3, §4

[13] = tested on: S. aureus ATCC 25923; experiment: Microdilution MIC/MMC with resazurin; assay type: cell-based, Staphylococcus aureus
[14] = tested on: S. aureus ATCC 25923; experiment: Inhibition of biofilm formation (crystal violet); assay type: cell-based, Staphylococcus aureus
[15] = tested on: P. aeruginosa ATCC 27853; experiment: Microdilution MIC/MMC with resazurin; assay type: cell-based, Pseudomonas aeruginosa
Method: as §1, §2, §3, §4

[16] = tested on: L. plantarum 299V; experiment: Microdilution MIC/MMC with resazurin; assay type: cell-based, Lactobacillus plantarum
Method: as §1, §2, §3, §4

[17] = tested on: P. aeruginosa ATCC 27853; experiment: Inhibition of biofilm formation (crystal violet); assay type: cell-based, Pseudomonas aeruginosa
Method: as §5

## CC(=O)c1c(O)c2ccccc2oc1=O [3AcHyC, 3-acetyl-4-hydroxycoumarin]
[1]
  inhibition at 25 µM: 26.4 ± 1.3%
  inhibition at 40 µM: 35.8 ± 0.8%
  inhibition at 50 µM: 43.5 ± 3.1%
  inhibition at 75 µM: 63.4 ± 0.4%
  inhibition at 100 µM: 81.2 ± 0.2%
  IC50: 57.9 ± 1.6 µM

## OC(Cn1cncn1)(Cn1cncn1)c1ccc(F)cc1F [Fluconazole, fluconazole, reference compound]
[2]
  MMC: 0.2 mM
[2]; Candida albicans, ATCC10231
  MIC: 100 µM (≈ 30.6 µg/mL)
[3]
  MMC: 0.1 mM
[3]; Saccharomyces cerevisiae
  MIC: 25 µM (≈ 7.66 µg/mL)
[4]
  MMC: 0.025 mM
[4]; Saccharomyces cerevisiae
  MIC: 25 µM (≈ 7.66 µg/mL)

## NNC(=O)c1ccc(O)c(O)c1O [H-1, 2,3,4-trihydroxybenzohydrazide]
[1]
  inhibition at 25 µM: 21.6 ± 1.4%
  inhibition at 40 µM: 33.9 ± 0.8%
  inhibition at 50 µM: 37.8 ± 1%
  inhibition at 75 µM: 57.5 ± 1.1%
  inhibition at 100 µM: 73.5 ± 0.6%
  IC50: 65.4 ± 0.6 µM

## NNC(=O)c1cc(O)c(O)c(O)c1 [H-2, 3,4,5-trihydroxybenzohydrazide]
[1]
  inhibition at 25 µM: 32 ± 0.1%
  inhibition at 40 µM: 44.4 ± 1.7%
  inhibition at 50 µM: 56 ± 1.1%
  inhibition at 75 µM: 73.4 ± 0.3%
  inhibition at 100 µM: 91.9 ± 0.2%
  IC50: 46 ± 0.9 µM

## CN(C)[C@@H]1C(O)=C(C(N)=O)C(=O)[C@@]2(O)C(O)=C3C(=O)c4c(O)cccc4[C@@](C)(O)[C@H]3C[C@@H]12 [Tetracycline, reference compound]
[5]
  MMC: 0.005 mM
[5]; Bacillus subtilis
  MIC: 2 µM (≈ 0.889 µg/mL)
[6]
  MMC: 0.035 mM
[6]; Bacillus subtilis, ATCC6633
  MIC: 5 µM (≈ 2.22 µg/mL)
[7]
  MMC: 0.01 mM
[8]
  MMC: 0.01 mM
[8]; Escherichia coli
  MIC: 5 µM (≈ 2.22 µg/mL)
[9]
  MMC: 0.07 mM
[9]; Klebsiella pneumoniae
  MIC: 9 µM (≈ 4 µg/mL)
[10]; P. mirabilis ATCC 12453, 48 h
  BIC90: >2.25 mM
[10]; Proteus mirabilis, ATCC12453, P. mirabilis ATCC 12453, 48 h, read-out: BIC50
  IC50: 1310 µM
[11]
  MMC: <0.001 mM
[11]; Staphylococcus aureus
  MIC: < 1 µM
[12]
  MMC: 0.07 mM
[12]; Proteus mirabilis, ATCC12453
  MIC: 35 µM (≈ 15.6 µg/mL)
[13]
  MMC: 0.005 mM
[13]; Staphylococcus aureus, ATCC25923
  MIC: < 1 µM
[14]; S. aureus ATCC 25923, 48 h
  BIC90: >2.25 mM
[14]; Staphylococcus aureus, ATCC25923, S. aureus ATCC 25923, 48 h, read-out: BIC50
  IC50: 560 µM
[15]
  MMC: 0.14 mM
[15]; Pseudomonas aeruginosa, ATCC27853
  MIC: 20 µM (≈ 8.89 µg/mL)
[16]
  MMC: 0.001 mM
[16]; Lactiplantibacillus plantarum
  MIC: < 1 µM
[17]; P. aeruginosa ATCC 27853, 48 h
  BIC90: >2.25 mM
[17]; Pseudomonas aeruginosa, ATCC27853, P. aeruginosa ATCC 27853, 48 h, read-out: BIC50
  IC50: > 2250 µM
